# Values of other authors in patent US6486186B2, “Thiazole compounds as cyclic AMP-specific phosphodiesterase inhibitors and method of using the same” (ICOS Corporation, priority 1999, dated 2002).
# What was measured:
# [1] = in vivo
# recombinant human PDE4 = conditions: literature value; read-out: reported IC50 with respect to inhibiting recombinant human PDE4
IC50 (recombinant human PDE4),SMILES,emetic potential relative to the (+)-enantiomer (S-rolipram) [1]
–,"COc1ccc([C@@H]2CNC(=O)C2)cc1OC1CCCC1 (single isomer, unassigned) [(−)-enantiomer of rolipram]",about ten-fold more emetic
~200 nM,COc1ccc(C2CNC(=O)C2)cc1OC1CCCC1 (stereo not drawn) [Rolipram],–
~2 nM,COC(=O)N1CC(c2ccc(OC)c(OC3CCCC3)c2)C(C)(C(C)=O)C1 (stereo not drawn) [structural formula (I)],–
